Twelve compounds from patent US9169215B2, “LPAR—substituted cyanopyrazole compounds” (Hoffmann-La Roche Inc., priority 2012, dated 2015) can be followed below.

Each structure is given as a SMILES string.

One experiment addresses T1, LPA3 (Homo sapiens, UniProt Q9UBY5).
T1 sequence (Q9UBY5 1-353): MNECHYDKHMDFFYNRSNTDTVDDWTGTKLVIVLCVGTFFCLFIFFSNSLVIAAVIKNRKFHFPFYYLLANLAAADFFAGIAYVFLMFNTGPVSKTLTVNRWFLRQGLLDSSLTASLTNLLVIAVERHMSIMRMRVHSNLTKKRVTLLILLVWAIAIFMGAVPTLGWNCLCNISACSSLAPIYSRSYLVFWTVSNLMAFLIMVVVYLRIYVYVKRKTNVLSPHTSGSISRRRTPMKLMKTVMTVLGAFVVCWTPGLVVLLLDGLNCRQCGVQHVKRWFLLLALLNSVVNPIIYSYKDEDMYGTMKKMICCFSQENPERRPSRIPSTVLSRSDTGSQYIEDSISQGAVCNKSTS
In words: Calcium flux assay using FLIPR, LPA3 antagonist activity. It counts as cell-based. On the procedure:
(§1) Calcium Flux Assay Using Fluorometric Imaging Plate Reader (FLIPR)
(§2) After incubation, both the cell and “assay” plates were brought to the FLIPR and 20 μL of the diluted compounds were transferred to the cell plates by the FLIPR. Compound addition was monitored by FLIPR to detect any agonist activity of the compounds. Plates were then incubated for 30 minutes at RT protected from light. After the incubation, plates were returned to the FLIPR and 20 μL of 4.5× concentrated agonist was added to the cell plates. During the assay, fluorescence readings were taken simultaneously from all 384 wells of the cell plate every 1.5 seconds. Five readings were taken to establish a stable baseline, then 20 μL of sample was rapidly (30 μL/sec) and simultaneously added to each well of the cell plate. The fluorescence was continuously monitored before, during and after sample addition for a total elapsed time of 100 seconds. Responses (increase in peak fluorescence) in each well following agonist addition was determined. The initial fluorescence reading from each well, prior to ligand stimulation, was used as zero baseline value for the data from that well. The responses were expressed as % inhibition of the buffer control.
For orientation: A change in cytosolic calcium serves as a functional read-out for many receptors and channels.

The target in experiment [1] is human recombinant LPA1 Lysophospholipid receptor (Homo sapiens, UniProt Q92633). The experiment can be described thus: Calcium flux assay using FLIPR, LPA1 antagonist activity. It counts as cell-based. The note with it: for IC50: ChemiScreen calcium-optimized stable cell line, inhibition of agonist-induced calcium flux. The method, then: as §1
Sequence of human recombinant LPA1 Lysophospholipid receptor (Q92633 whole entry): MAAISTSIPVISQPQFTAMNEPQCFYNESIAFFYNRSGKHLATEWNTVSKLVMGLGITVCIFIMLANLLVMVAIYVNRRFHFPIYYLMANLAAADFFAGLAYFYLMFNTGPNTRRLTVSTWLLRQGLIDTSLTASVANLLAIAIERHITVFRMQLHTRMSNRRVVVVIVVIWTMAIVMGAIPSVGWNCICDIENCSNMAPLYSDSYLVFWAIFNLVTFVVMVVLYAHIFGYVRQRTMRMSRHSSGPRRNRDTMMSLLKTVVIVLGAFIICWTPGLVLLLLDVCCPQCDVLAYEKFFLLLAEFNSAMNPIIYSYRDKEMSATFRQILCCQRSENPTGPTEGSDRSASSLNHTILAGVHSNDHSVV
Cell Culture Conditions: The ChemiScreen Calcium-optimized stable cell line containing the human recombinant LPA1 Lysophospholipid receptor was purchased from Chemicon International, Inc./Millipore. The cells were cultured in DMEM-high glucose supplemented with 10% fetal bovine serum, 2 mM glutamine, 100 U/mL penicillin/100 μg/mL streptomycin, 1× non-essential amino acids, 10 mM HEPES and 0.25 mg/mL Geneticin. Cells were harvested with trypsin-EDTA and counted using ViaCount reagent. The cell suspension volume was adjusted to 2.0×10^5 cells/mL with complete growth media. Aliquots of 50 μL were dispensed into 384 well black/clear tissue culture treated plates (BD) and the microplates were placed in a 37° C. incubator overnight. The following day plates were used in the assay.
Dye Loading and Assay: Loading Buffer (FLIPR Calcium-4, Molecular Devices) was prepared by dissolving the contents of one bottle into 100 mL Hank's Balanced Salt Solution containing 20 mM HEPES and 2.5 mM probenecid. Plates were loaded onto Biotek plate washer and growth media was removed and replaced with 20 μL of Hank's Balanced Salt Solution containing 20 mM HEPES and 2.5 mM probenecid, followed by 25 μL of Loading Buffer. The plates were then incubated for 30 minutes at 37° C.
During the incubation, test compounds were prepared by adding 90 μL of HBSS/20 mM HEPES/0.1% BSA buffer to 2 μL of serially diluted compounds. To prepare serial dilutions, 10 mM stocks of compounds were prepared in 100% DMSO. The compound dilution plate was set up as follows: well #1 received 29 μL of stock compound and 31 μL DMSO; wells 2-10 received 40 μL of DMSO; mixed and transferred 20 μL of solution from well #1 into well #2; continued with 1:3 serial dilutions out 10 steps; transferred 2 μL of diluted compound into duplicate wells of 384 well “assay plate” and then added the 90 μL of buffer.
as §2

For `COc1cc(F)ccc1C(=O)/C(=N\C1CCCC1)n1ncc(C#N)c1N` [Example 4, (E)-5-Amino-1-(1-(cyclopentylimino)-2-(4-fluoro-2-methoxyphenyl)-2-oxoethyl)-1H-pyrazole-4-carbonitrile], the inhibition at 30 µM at LPA3 came out at 3%; in experiment [1], 49%.
In the case of `COc1cc2ccccc2cc1C(=O)/C(=N\C1CCCC1)n1ncc(C#N)c1N` [Example 7, (E)-5-Amino-1-(1-(cyclopentylimino)-2-(3-methoxynaphthalen-2-yl)-2-oxoethyl)-1H-pyrazole-4-carbonitrile], the inhibition at 30 µM at LPA3 is 2%; in experiment [1], 77.5%. Further, in experiment [1], the IC50 was found to be 0.806 µM.
As to `COc1ccc(C(=O)/C(=N\C2CCCC2)n2ncc(C#N)c2N)c(F)c1` [Example 5, (E)-5-Amino-1-(1-(cyclopentylimino)-2-(2-fluoro-4-methoxyphenyl)-2-oxoethyl)-1H-pyrazole-4-carbonitrile], the inhibition at 30 µM at LPA3 is under 5%. In experiment [1], the inhibition at 30 µM stood at 99.8% and the IC50 is 0.074 µM.
For `COc1cc2c(cc1C(=O)/C(=N\C1CCCC1)n1ncc(C#N)c1N)CCC2` [Example 8, (E)-5-Amino-1-(1-(cyclopentylimino)-2-(6-methoxy-2,3-dihydro-1H-inden-5-yl)-2-oxoethyl)-1H-pyrazole-4-carbonitrile], the inhibition at 30 µM on LPA3 came out at 19.1%. Besides, in experiment [1], the inhibition at 30 µM is 78.4% and the IC50 was determined as 0.825 µM.
As for `COc1cc(OC)c(C(=O)/C(=N\C2CCCC2)n2ncc(C#N)c2N)cc1OC` [Example 6, (E)-5-Amino-1-(1-(cyclopentylimino)-2-(2,4,5-trimethoxyphenyl)-2-oxoethyl)-1H-pyrazole-4-carbonitrile], the inhibition at 30 µM on LPA3 turned out to be 7.5%. For the same compound, the inhibition at 10 µM in experiment [1] (@ 10 μM) was determined as 79.2%. The IC50 in experiment [1] worked out at 3.36 µM.
For the compound `COc1cc(C(=O)/C(=N\C2CCCC2)n2ncc(C#N)c2N)cc(OC)c1OC` [Example 12, (E)-5-Amino-1-(1-(cyclopentylimino)-2-(3,4,5-trimethoxyphenyl)-2-oxoethyl)-1H-pyrazole-4-carbonitrile], the inhibition at 30 µM on LPA3 stood at 14%. The inhibition at 5 µM in experiment [1] (@ 5 μM) amounted to 13%.
Regarding `COc1ccc(C(=O)/C(=N\C(C)C)n2ncc(C#N)c2N)c(OC)c1` [Example 10, (E)-5-Amino-1-(2-(2,4-dimethoxyphenyl)-1-(iso-propylimino)-2-oxoethyl)-1H-pyrazole-4-carbonitrile], on LPA3, the inhibition at 30 µM turned out to be 21%. Moreover, in experiment [1], the inhibition at 30 µM stood at 88.2% and the 50% inhibitory concentration (IC50) stood at 0.111 µM.
Regarding `COc1cc(OCc2ccccc2)ccc1C(=O)/C(=N\C1CCCC1)n1ncc(C#N)c1N` [Example 11, (E)-5-Amino-1-(2-(4-benzyloxy-2-methoxyphenyl)-1-(cyclopentylimino)-2-oxoethyl)-1H-pyrazole-4-carbonitrile], the inhibition at 30 µM at LPA3 was 23%; in experiment [1], 48%.
Regarding `CCc1ccc(C(=O)/C(=N\C2CCCC2)n2ncc(C#N)c2N)cc1` [Example 2, (E)-5-Amino-1-(1-(cyclopentylimino)-2-(4-ethylphenyl)-2-oxoethyl)-1H-pyrazole-4-carbonitrile], the inhibition at 30 µM at LPA3 came out at 13%. In experiment [1], the inhibition at 30 µM amounted to 100% and the IC50 amounted to 0.586 µM.
Regarding `COc1ccc(C(=O)/C(=N\C2CCCCC2)n2ncc(C#N)c2N)c(OC)c1` [Example 9, (E)-5-Amino-1-(1-(cyclohexylimino)-2-(2,4-dimethoxyphenyl)-2-oxoethyl)-1H-pyrazole-4-carbonitrile], the inhibition at 30 µM at LPA3 stood at 29%. For the same compound, in experiment [1], the inhibition at 30 µM amounted to 84.9% and the IC50 was found to be 0.51 µM.
The matching figures for `N#Cc1cnn(/C(=N/C2CCCC2)C(=O)c2ccc(Br)cc2)c1N` [Example 3, (E)-5-Amino-1-(1-(cyclopentylimino)-2-(4-bromophenyl)-2-oxoethyl)-1H-pyrazole-4-carbonitrile]: under 1%, 96% and 2.94 µM.
Turning to `COc1ccc(C(=O)/C(=N\C2CCCC2)n2ncc(C#N)c2N)c(OC)c1` [Example 1, (E)-5-Amino-1-(1-(cyclopentylimino)-2-(2,4-dimethoxyphenyl)-2-oxoethyl)-1H-pyrazole-4-carbonitrile], the inhibition at 30 µM at LPA3 was 22%. Also, in experiment [1], the inhibition at 30 µM amounted to 98% and the IC50 stood at 0.0798 µM.

What is called inhibition is how much of the control response was suppressed. As usually defined, the IC50 is the concentration that gives 50% inhibition.
